# Data reported in patent US6512123B2, “Tricyclic alkylhydroxamate derivatives” (Hoffmann-La Roche Inc., priority 2001, dated 2003).
# Legend:
# [1] = test system: histone deacetylase (HDAC); experiment: HDAC inhibition screening assay using an aminocoumarin derivative of an omega-acetylated lysine as substrate; format: biochemical; conditions: compound concentration 10 nM
# Description: To measure the inhibitory properties of the compounds of the invention, a screening assay was performed using an aminocoumarin derivative of an omega-acetylated lysine as substrate for the enzmye. This assay has been described in detail in the literature (Hoffmann, K., et al., Nucleic Acids Res. 27 (1999)2057-2058). Using the protocol described therein, there was measured the inhibitory effect of the compounds at a concentration of 10 nM.
Inhibitory effect at 10 nM in % [1] [%],melting point [°C],SMILES
69,,"O=C(CCCCOc1ccc2c(c1)[nH]c1ccccc12)NO [Example 7, 5-(9H-Carbazol-2-yloxy)-pentanoic Acid Hydroxyamide]"
86,,"O=C(CCCCCCCOc1ccc2c(c1)[nH]c1ccccc12)NO [Example 3, 8-(9H-Carbazol-2-yloxy)-octanoic Acid Hydroxyamide]"
100,198,"O=C(CCCCCCOc1ccc2c(c1)[nH]c1ccccc12)NO [Example 5, 7-(9H-Carbazol-2-yloxy)-heptanoic Acid Hydroxyamide]"
97,,"O=C(CCCCCCCOc1cccc2[nH]c3ccccc3c12)NO [Example 4, 8-(9H-Carbazol-4-yloxy)-octanoic Acid Hydroxyamide]"

# Continued, compound first:
SMILES,Inhibitory effect at 10 nM in % [1] [%],melting point [°C]
"O=C(CCCCCCCOc1ccc2c(c1)C(=O)c1ccccc1CO2)NO [Example 1, 8-(11-Oxo-6,1 1-Dihydro-dibenzo[b,e]oxepin-2-yloxy)-octanoic Acid Hydroxyamide]",62,
"O=C(CCCCCOc1ccc2c(c1)[nH]c1ccccc12)NO [Example 6, 6-(9H-Carbazol-2-yloxy)-hexanoic Acid Hydroxyamide]",80,192
"O=C(CCCCCCCOc1ccc2c(c1)C(O)c1ccccc1-2)NO (racemic) [Example 2, rac-8-(9-Hydroxy-9H-fluoren-2-yloxy)-octanoic Acid Hydroxyamide]",79,
